pIC50: −log10 of the molar value.
Experiments:
[1] = target: Vascular endothelial growth factor receptor 2 (Homo sapiens, UniProt P35968); assay: Inhibition of human cytoplasmic VEGFR2 expressed in baculovirus after 15 mins by time resolved fluorescence assay
Rattus norvegicus [2] = assay: (§1) Oral bioavailability in rat at 5 mg/kg; format: ADME, organism-based; conditions: in vivo
Rattus norvegicus [3] = assay: (§2) AUC in rat at 1 mg/kg, iv; format: ADME, organism-based, Plasma; set-up: dose 1 mg/kg, route intravenous; conditions: in vivo
Rattus norvegicus [4] = assay: (§3) AUC in rat at 5 mg/kg, po; format: ADME, organism-based, Plasma; set-up: dose 5 mg/kg, route oral; conditions: in vivo
[5] = Half life in rat at 5 mg/kg, po; format: ADME, organism-based; set-up: dose 5 mg/kg, route oral; conditions: in vivo
[6] = Volume of distribution in rat at 1 mg/kg, iv; format: ADME, organism-based; set-up: dose 1 mg/kg, route intravenous; conditions: in vivo, read-out: Vdss
[7] = Clearance in rat at 1 mg/kg, iv; format: ADME, organism-based; set-up: dose 1 mg/kg, route intravenous; conditions: in vivo
[8] = Cmax in rat at 5 mg/kg, po; format: ADME, organism-based; set-up: dose 5 mg/kg, route oral; conditions: in vivo
[9] = Half life in rat at 1 mg/kg, iv; format: ADME, organism-based; set-up: dose 1 mg/kg, route intravenous; conditions: in vivo
[10] = target: Vascular endothelial growth factor receptor 1 (Homo sapiens, UniProt P17948); assay: Inhibition of VEGFR1
[11] = target: Proto-oncogene tyrosine-protein kinase Src (Homo sapiens, UniProt P12931); assay: Inhibition of SRC
[12] = as §2; format: ADME, organism-based, Plasma; set-up: dose 1 mg/kg, route intravenous; conditions: plasma
Angiopoietin-1 receptor = Angiopoietin-1 receptor (Homo sapiens, UniProt Q02763); assay: Inhibition of Tie2
[13] = target: High affinity nerve growth factor receptor (Homo sapiens, UniProt P04629); assay: Inhibition of TRK A
[14] = target: Vascular endothelial growth factor receptor 3 (Homo sapiens, UniProt P35916); assay: Inhibition of VEGFR3
[15] = as §1; format: ADME, organism-based; conditions: in vivo
[16] = as §3; format: ADME, organism-based, Plasma; set-up: dose 5 mg/kg, route oral; conditions: plasma

Chain of Vascular endothelial growth factor receptor 2 (P35968 whole entry): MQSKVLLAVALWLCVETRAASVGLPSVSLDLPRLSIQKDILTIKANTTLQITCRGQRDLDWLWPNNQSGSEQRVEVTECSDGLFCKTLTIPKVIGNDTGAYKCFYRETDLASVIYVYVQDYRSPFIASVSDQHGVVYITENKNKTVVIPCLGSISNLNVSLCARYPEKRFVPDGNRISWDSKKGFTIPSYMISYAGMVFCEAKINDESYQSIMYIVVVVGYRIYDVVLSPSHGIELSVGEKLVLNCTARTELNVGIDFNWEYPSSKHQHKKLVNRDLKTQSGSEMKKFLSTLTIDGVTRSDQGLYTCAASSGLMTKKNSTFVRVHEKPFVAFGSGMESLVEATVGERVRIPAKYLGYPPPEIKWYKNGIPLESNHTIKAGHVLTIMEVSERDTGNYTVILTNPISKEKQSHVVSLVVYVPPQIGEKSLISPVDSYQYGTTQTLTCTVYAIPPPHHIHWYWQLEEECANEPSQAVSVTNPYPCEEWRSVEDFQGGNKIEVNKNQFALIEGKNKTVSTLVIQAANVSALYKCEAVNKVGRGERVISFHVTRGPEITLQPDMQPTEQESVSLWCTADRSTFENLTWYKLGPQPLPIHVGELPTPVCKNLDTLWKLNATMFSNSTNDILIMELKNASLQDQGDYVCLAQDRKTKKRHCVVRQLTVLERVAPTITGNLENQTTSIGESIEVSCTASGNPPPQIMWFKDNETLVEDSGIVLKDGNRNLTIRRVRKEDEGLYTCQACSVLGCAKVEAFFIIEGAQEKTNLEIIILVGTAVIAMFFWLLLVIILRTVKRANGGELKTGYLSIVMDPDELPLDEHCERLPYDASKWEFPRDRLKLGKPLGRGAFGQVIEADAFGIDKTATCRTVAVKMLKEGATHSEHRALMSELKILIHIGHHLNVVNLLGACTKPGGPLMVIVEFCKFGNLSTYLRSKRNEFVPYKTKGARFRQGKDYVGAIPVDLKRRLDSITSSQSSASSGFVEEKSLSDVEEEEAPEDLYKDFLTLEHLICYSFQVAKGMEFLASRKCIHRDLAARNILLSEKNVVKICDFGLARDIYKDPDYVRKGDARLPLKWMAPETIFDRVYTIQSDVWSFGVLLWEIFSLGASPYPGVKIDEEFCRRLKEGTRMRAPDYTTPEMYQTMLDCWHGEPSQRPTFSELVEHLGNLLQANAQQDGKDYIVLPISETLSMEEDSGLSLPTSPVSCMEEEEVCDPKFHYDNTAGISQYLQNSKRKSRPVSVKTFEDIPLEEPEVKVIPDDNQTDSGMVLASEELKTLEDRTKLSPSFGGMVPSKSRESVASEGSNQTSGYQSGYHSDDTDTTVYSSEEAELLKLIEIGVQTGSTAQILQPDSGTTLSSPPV
Chain of Angiopoietin-1 receptor (Q02763 whole entry): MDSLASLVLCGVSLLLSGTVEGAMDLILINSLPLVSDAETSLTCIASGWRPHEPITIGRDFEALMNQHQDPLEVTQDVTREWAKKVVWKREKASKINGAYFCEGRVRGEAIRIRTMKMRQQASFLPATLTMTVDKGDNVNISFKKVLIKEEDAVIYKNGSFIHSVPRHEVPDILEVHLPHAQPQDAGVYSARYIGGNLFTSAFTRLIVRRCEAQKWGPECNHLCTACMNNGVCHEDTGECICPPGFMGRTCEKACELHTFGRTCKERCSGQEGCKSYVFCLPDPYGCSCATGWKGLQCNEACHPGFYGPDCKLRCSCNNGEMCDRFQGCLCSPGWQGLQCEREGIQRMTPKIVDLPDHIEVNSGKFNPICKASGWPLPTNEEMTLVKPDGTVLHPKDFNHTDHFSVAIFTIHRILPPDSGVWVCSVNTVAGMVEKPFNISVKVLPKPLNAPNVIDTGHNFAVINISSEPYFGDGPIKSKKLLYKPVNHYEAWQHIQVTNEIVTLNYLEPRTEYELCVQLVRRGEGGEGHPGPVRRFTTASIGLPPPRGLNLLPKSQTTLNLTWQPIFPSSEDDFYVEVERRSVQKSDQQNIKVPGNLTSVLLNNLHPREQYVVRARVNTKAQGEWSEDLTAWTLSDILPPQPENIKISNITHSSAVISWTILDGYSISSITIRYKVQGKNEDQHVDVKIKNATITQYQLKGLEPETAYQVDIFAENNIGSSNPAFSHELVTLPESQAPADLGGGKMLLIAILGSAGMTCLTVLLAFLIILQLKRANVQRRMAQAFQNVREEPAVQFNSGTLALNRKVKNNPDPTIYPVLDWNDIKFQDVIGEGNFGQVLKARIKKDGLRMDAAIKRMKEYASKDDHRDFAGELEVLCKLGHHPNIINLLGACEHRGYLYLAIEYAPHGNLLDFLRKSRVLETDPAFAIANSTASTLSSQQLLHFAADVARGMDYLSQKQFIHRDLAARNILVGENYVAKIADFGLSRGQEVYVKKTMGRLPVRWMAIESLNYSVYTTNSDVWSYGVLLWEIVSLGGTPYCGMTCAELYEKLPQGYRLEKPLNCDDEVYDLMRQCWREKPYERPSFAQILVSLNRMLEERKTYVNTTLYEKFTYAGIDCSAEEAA
Chain of Vascular endothelial growth factor receptor 1 (P17948 whole entry): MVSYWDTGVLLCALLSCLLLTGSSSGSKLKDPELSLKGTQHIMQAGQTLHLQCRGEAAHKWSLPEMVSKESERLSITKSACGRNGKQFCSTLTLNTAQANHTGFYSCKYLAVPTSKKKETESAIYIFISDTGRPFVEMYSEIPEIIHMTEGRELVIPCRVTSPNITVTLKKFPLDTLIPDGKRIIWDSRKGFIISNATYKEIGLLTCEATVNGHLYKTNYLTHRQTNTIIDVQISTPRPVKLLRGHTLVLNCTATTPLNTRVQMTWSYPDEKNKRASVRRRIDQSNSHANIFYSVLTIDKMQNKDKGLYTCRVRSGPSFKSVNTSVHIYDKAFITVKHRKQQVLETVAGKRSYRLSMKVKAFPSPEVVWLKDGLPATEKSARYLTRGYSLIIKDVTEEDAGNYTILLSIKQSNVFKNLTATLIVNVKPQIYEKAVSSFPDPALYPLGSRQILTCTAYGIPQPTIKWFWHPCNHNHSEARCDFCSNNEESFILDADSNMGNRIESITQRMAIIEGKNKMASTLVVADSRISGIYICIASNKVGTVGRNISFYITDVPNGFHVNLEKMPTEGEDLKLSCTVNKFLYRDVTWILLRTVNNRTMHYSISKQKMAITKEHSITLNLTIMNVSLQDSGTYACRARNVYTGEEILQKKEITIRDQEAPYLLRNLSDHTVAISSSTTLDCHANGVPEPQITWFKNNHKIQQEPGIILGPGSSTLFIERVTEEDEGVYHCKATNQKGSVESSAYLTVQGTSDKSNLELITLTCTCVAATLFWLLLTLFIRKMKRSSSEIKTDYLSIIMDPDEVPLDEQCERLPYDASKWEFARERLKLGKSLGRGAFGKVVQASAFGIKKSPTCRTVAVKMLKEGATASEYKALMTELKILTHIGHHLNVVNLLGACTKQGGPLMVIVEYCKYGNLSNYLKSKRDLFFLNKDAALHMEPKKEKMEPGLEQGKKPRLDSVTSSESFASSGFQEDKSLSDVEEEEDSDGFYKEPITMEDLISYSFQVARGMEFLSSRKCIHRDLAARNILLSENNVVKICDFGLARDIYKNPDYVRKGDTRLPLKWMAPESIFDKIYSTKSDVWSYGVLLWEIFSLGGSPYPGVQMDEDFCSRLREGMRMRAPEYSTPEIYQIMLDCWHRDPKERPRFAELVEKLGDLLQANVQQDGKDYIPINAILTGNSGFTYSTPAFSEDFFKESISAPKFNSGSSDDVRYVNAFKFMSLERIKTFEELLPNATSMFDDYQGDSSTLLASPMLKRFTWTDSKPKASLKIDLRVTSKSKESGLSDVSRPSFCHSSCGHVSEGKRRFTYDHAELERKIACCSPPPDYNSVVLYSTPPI
Chain of Proto-oncogene tyrosine-protein kinase Src (P12931 2-536 limits assumed): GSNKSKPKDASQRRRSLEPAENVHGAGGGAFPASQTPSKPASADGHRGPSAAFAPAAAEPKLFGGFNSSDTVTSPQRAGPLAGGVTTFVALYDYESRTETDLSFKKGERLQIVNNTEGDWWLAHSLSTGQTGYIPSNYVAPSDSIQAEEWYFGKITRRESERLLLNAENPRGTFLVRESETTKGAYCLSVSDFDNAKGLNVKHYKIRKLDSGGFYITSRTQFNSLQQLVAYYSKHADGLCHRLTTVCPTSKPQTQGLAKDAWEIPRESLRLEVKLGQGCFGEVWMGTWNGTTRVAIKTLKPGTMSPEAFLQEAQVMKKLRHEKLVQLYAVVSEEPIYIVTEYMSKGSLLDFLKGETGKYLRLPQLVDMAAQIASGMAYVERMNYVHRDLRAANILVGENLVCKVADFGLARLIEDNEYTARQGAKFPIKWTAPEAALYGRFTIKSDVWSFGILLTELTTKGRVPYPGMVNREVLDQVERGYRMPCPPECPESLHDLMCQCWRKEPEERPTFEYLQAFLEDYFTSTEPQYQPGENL

SMILES	pIC50 [1]	Vd [6]	clearance [7]	half-life [9]	AUC [12]	further results
Cc1nnsc1C1=NNC(=O)/C1=C\c1c[nH]c2ccccc12	< 6.00	–	–	–	–	–
Cc1nnsc1C1=NNC(=O)/C1=C\c1cn(C)c2ccc(C#N)cc12	< 6.52	–	–	–	–	–
Cc1nnsc1C1=NNC(=O)/C1=C\c1cn(C)c2ccc(F)cc12	–	1.1 L/kg	25 mL/min/kg	30 min	–	F (Rattus norvegicus [2]): 29%; AUC (Rattus norvegicus [3]): 727 ng·h/mL; AUC (Rattus norvegicus [4]): 507 ng·h/mL; half-life [5]: 84 min; Cmax [8]: 356 ng/mL
Cc1nnsc1C1=NNC(=O)/C1=C\c1c[nH]c2ccc(Cl)cc12	< 6.52	–	–	–	–	–
CCOc1cccc2c1c(/C=C1\C(=O)NN=C1c1snnc1C)cn2C	–	1.1 L/kg	15 mL/min/kg	54 min	1140 ng·h/mL	pIC50 [10]: < 5.52; pIC50 [11]: 6.33; pIC50 (Angiopoietin-1 receptor): < 5.00; pIC50 [13]: 7.44; pIC50 [14]: 7.80
Cn1cc(/C=C2\C(=O)NN=C2c2nccs2)c2c(F)cccc21	–	0.23 L/kg	4.6 mL/min/kg	36 min	3600 ng·h/mL	bioavailability [15]: 3%; AUC [16]: 1040 ng·h/mL; half-life [5]: 72 min; Cmax [8]: 139 ng/mL
COc1cccc2c1c(/C=C1\C(=O)NN=C1c1snnc1C)cn2C	–	2.2 L/kg	87 mL/min/kg	18 min	192 ng·h/mL	–

— ChEMBL document CHEMBL1139105, “1,2,3-Thiadiazole substituted pyrazolones as potent KDR/VEGFR-2 kinase inhibitors” (Bioorg Med Chem Lett, 2007)
